This note sets out measurements from patent publication US9221827B2, “Antimicrobial compounds and methods of making and using the same” (Melinta Therapeutics, Inc., priority 2011, dated 2015).

The first experiment concerns Escherichia coli strain ATCC25922. Description: standard microdilution assay to determine minimum inhibitory concentrations (MICs). The class given is cell-based. As to conditions: Escherichia coli strain ATCC25922, microdilution. Put shortly: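 Broth microdilution per CLSI (M7-A8/M100-S20), 100 μl final volume, with reference-strain quality control; MIC is the lowest inhibitory concentration. Scored "+"/"−" against a 16 micrograms/ml cutoff, "N/A" where unavailable.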
Background: Broth dilution looks for growth in wells or tubes with falling amounts of substance.
On to `N=C(N)NCCCNCc1ccc(-n2cc3cc(-c4cc(CCCCN)cc(OC(F)F)c4Cl)[nH]c3nc2=O)cc1` [Compound 214], for which the “E. coli ATCC25922 MIC” value is recorded as “+ (a “+” indicates that the compound has an MIC value of 16 micrograms/ml or less)”.

Take `CC(N)CCCc1cc(OC(F)(F)F)c(Cl)c(-c2cc3cn(-c4ccc(C(C)NCCCNC(=N)N)cc4)c(=O)nc3[nH]2)c1` (stereo not shown) [Compound 282]: the “E. coli ATCC25922 MIC” value is “+ (a “+” indicates that the compound has an MIC value of 16 micrograms/ml or less)”.

Consider `N=C(N)NCCCNCc1ccc(-n2cc3cc(-c4cc(C(O)CCCN)cc(C(F)(F)F)c4)[nH]c3nc2=O)cc1` (stereo not shown) [Compound 29], for which the “E. coli ATCC25922 MIC” value was “+ (a “+” indicates that the compound has an MIC value of 16 micrograms/ml or less)”.

Turning to `CC(N)CCCc1cc(-c2cc3cn(-c4ccc(CNCCCNC(=N)N)cc4)c(=O)nc3[nH]2)c(F)c(C(F)(F)F)c1` (stereo not shown) [Compound 275], the “E. coli ATCC25922 MIC” value is “+ (a “+” indicates that the compound has an MIC value of 16 micrograms/ml or less)”.

`C[C@H](N)CCCc1cc(OC(F)(F)F)c(F)c(-c2cc3cn(-c4ccc([C@H](C)NCCCNC(=N)N)cc4)c(=O)nc3[nH]2)c1` [Compound 316]: the “E. coli ATCC25922 MIC” value is listed as “+ (a “+” indicates that the compound has an MIC value of 16 micrograms/ml or less)”.

As for `N=C(N)NCCCNCc1ccc(-n2cc3cc(-c4cc(C(O)CCCN)ccc4Cl)[nH]c3nc2=O)cc1` (stereo not shown) [Compound 51], the “E. coli ATCC25922 MIC” value is recorded as “+ (a “+” indicates that the compound has an MIC value of 16 micrograms/ml or less)”.

Regarding `N#Cc1cc(CCCCN)cc(-c2cc3cn(-c4ccc(CNCCCNC(=N)N)cc4)c(=O)nc3[nH]2)c1F` [Compound 122], the “E. coli ATCC25922 MIC” value is “+ (a “+” indicates that the compound has an MIC value of 16 micrograms/ml or less)”.

Consider `C[C@@H](CNCc1ccc(-n2cc3cc(-c4cc(CCCCN)cc(OC(F)(F)F)c4)[nH]c3nc2=O)cc1)CNC(=N)N` [Compound 35], for which the “E. coli ATCC25922 MIC” value is reported as “+ (a “+” indicates that the compound has an MIC value of 16 micrograms/ml or less)”.

As to `CC(CCN)Cc1cc(OC(F)(F)F)cc(-c2cc3cn(-c4ccc(CNCCCNC(=N)N)cc4)c(=O)nc3[nH]2)c1` (stereo not shown) [Compound 93], the “E. coli ATCC25922 MIC” value is recorded as “+ (a “+” indicates that the compound has an MIC value of 16 micrograms/ml or less)”.

As for `COC(=O)CC(NCCCNC(=N)N)c1ccc(-n2cc3cc(-c4cc(CCCC(C)N)cc(Cl)c4F)[nH]c3nc2=O)cc1` (stereo not shown) [Compound 487], the “E. coli ATCC25922 MIC” value was “+ (a “+” indicates that the compound has an MIC value of 16 micrograms/ml or less)”.

Turning to `Cc1cc(CCC[C@H](C)N)cc(-c2cc3cn(-c4ccc(CNCCCNC(=N)N)cc4)c(=O)nc3[nH]2)c1Cl` [Compound 313], the “E. coli ATCC25922 MIC” value is recorded as “+ (a “+” indicates that the compound has an MIC value of 16 micrograms/ml or less)”.

`CC(N)CCCc1cc(SC(F)(F)F)c(Cl)c(-c2cc3cn(-c4ccc(CNCCCNC(=N)N)cc4)c(=O)nc3[nH]2)c1` (stereo not shown) [Compound 288]: the “E. coli ATCC25922 MIC” value is reported as “+ (a “+” indicates that the compound has an MIC value of 16 micrograms/ml or less)”.

Take `C[C@H](NCCCNC(=N)N)c1ccc(-n2cc3cc(-c4cc(CCCC(C)(C)N)cc(SC(F)(F)F)c4)[nH]c3nc2=O)cc1` [Compound 304]: the “E. coli ATCC25922 MIC” value was “+ (a “+” indicates that the compound has an MIC value of 16 micrograms/ml or less)”.

Take `C[C@H](N)COCc1cc(-c2cc3cn(-c4ccc(CNCCCNC(=N)N)cc4)c(=O)nc3[nH]2)cc(C(F)(F)F)c1` [Compound 323]: the “E. coli ATCC25922 MIC” value is recorded as “+ (a “+” indicates that the compound has an MIC value of 16 micrograms/ml or less)”.

As for `C[C@H](NCCCNC(=N)N)c1ccc(-n2cc3cc(-c4cc(CO[C@@H](C)CN)cc(C(F)(F)F)c4)[nH]c3nc2=O)cc1` [Compound 315], the “E. coli ATCC25922 MIC” value is reported as “+ (a “+” indicates that the compound has an MIC value of 16 micrograms/ml or less)”.

On to `CC(C)(N)CCCc1ccc(F)c(-c2cc3cn(-c4ccc(CNCCCNC(=N)N)cc4)c(=O)nc3[nH]2)c1` [Compound 130], for which the “E. coli ATCC25922 MIC” value is recorded as “+ (a “+” indicates that the compound has an MIC value of 16 micrograms/ml or less)”.

Consider `NCCC[C@@H](O)c1cc(OC(F)(F)F)cc(-c2cc3cn(-c4ccc(CNCCCN=C(N)N)cc4)c(=O)nc3[nH]2)c1` [Compound 76], for which the “E. coli ATCC25922 MIC” value is given as “+ (a “+” indicates that the compound has an MIC value of 16 micrograms/ml or less)”.

With `CNC(C)CCCc1cc(SC(F)(F)F)cc(-c2cc3cn(-c4ccc(CNCCCNC(=N)N)cc4)c(=O)nc3[nH]2)c1` (stereo not shown) [Compound 294], the “E. coli ATCC25922 MIC” value is reported as “+ (a “+” indicates that the compound has an MIC value of 16 micrograms/ml or less)”.

Consider `N=C(N)NCCCNCc1ccc(-n2cc3cc(-c4cc(CCC5(CN)CC5)cc(F)c4Cl)[nH]c3nc2=O)cc1` [Compound 223], for which the “E. coli ATCC25922 MIC” value is “+ (a “+” indicates that the compound has an MIC value of 16 micrograms/ml or less)”.

Consider `C=C(CCCN)c1cc(OC(F)(F)F)cc(-c2cc3cn(-c4ccc(CNCCCNC(=N)N)cc4)c(=O)nc3[nH]2)c1` [Compound 95], for which the “E. coli ATCC25922 MIC” value is recorded as “+ (a “+” indicates that the compound has an MIC value of 16 micrograms/ml or less)”.

In the case of `CNC(C)CCCc1cc(-c2cc3cn(-c4ccc(CNCCCNC(=N)N)cc4)c(=O)nc3[nH]2)cc(C(F)(F)F)c1` (stereo not shown) [Compound 287], the “E. coli ATCC25922 MIC” value is listed as “+ (a “+” indicates that the compound has an MIC value of 16 micrograms/ml or less)”.

As to `N=C(N)NCCCNCc1ccc(-n2cc3cc(-c4cc(CCC(O)CN)ccc4F)[nH]c3nc2=O)cc1` (stereo not shown) [Compound 258], the “E. coli ATCC25922 MIC” value is on record as “+ (a “+” indicates that the compound has an MIC value of 16 micrograms/ml or less)”.

As to `CC(CCN)Cc1cc(Cl)c(F)c(-c2cc3cn(-c4ccc(CNCCCNC(=N)N)cc4)c(=O)nc3[nH]2)c1` (stereo not shown) [Compound 132], the “E. coli ATCC25922 MIC” value is recorded as “+ (a “+” indicates that the compound has an MIC value of 16 micrograms/ml or less)”.

Take `Cc1c(-c2cc3cn(-c4ccc(CNCCCNC(=N)N)cc4)c(=O)nc3[nH]2)cc(CCCCN)cc1C(F)(F)F` [Compound 212]: the “E. coli ATCC25922 MIC” value was “+ (a “+” indicates that the compound has an MIC value of 16 micrograms/ml or less)”.

For `N=C(N)NCCCNCc1ccc(-n2cc3cc(-c4cc(CC[C@@H](O)CN)cc(OC(F)(F)F)c4)[nH]c3nc2=O)cc1` [Compound 238], the “E. coli ATCC25922 MIC” value is reported as “+ (a “+” indicates that the compound has an MIC value of 16 micrograms/ml or less)”.

On to `N=C(N)NCCCNCc1ccc(-n2cc3cc(-c4cc(CCCCN)cc(CF)c4C(F)(F)F)[nH]c3nc2=O)cc1` [Compound 244], for which the “E. coli ATCC25922 MIC” value is reported as “+ (a “+” indicates that the compound has an MIC value of 16 micrograms/ml or less)”.

As for `CC(N)COC(C)c1cc(-c2cc3cn(-c4ccc([C@H](C)NCCCNC(=N)N)cc4)c(=O)nc3[nH]2)cc(C(F)(F)F)c1` (stereo partly shown) [Compound 478], the “E. coli ATCC25922 MIC” value was “+ (a “+” indicates that the compound has an MIC value of 16 micrograms/ml or less)”.

As to `CC(N)CCCc1cc(-c2cc3cn(-c4ccc(C5(NCCCNC(=N)N)CC5)cc4)c(=O)nc3[nH]2)cc(C(F)(F)F)c1` (stereo not shown) [Compound 485], the “E. coli ATCC25922 MIC” value is listed as “+ (a “+” indicates that the compound has an MIC value of 16 micrograms/ml or less)”.

Turning to `NCCCCc1cc(F)c(Cl)c(-c2cc3cn(-c4ccc(CNCCCN=C(N)N)c(F)c4)c(=O)nc3[nH]2)c1` [Compound 71], the “E. coli ATCC25922 MIC” value is reported as “+ (a “+” indicates that the compound has an MIC value of 16 micrograms/ml or less)”.

The same experiment, now with this note: Escherichia coli strain ATCC25922, standard microdilution assay.
Regarding `C[C@H](N)CCCc1cc(Cl)c(F)c(-c2cc3cn(-c4ccc([C@@H](C)N)cc4)c(=O)nc3[nH]2)c1` [Compound 406], the “E. coli ATCC25922 MIC” value is recorded as “− (a “−” indicates that the compound has an MIC value greater than 16 micrograms/ml)”.

`CC(C)c1cc(CCC[C@H](C)N)cc(-c2cc3cn(-c4ccc([C@H](C)NCCCNC(=N)N)cc4)c(=O)nc3[nH]2)c1F` [Compound 447]: the “E. coli ATCC25922 MIC” value is given as “+ (a “+” indicates that the compound has an MIC value of 16 micrograms/ml or less)”.

For `C[C@H](N)CCCc1cc(-c2cc3cn(-c4ccc([C@H](C)NCCCNC(=N)N)cc4)c(=O)nc3[nH]2)cc(C(C)(C)C)c1` [Compound 434], the “E. coli ATCC25922 MIC” value is “+ (a “+” indicates that the compound has an MIC value of 16 micrograms/ml or less)”.

Regarding `CC(N)CC=Cc1cc(Cl)c(F)c(-c2cc3cn(-c4ccc(C(C)NCCCNC(=N)N)cc4)c(=O)nc3[nH]2)c1` (stereo not shown) [Compound 343], the “E. coli ATCC25922 MIC” value is on record as “+ (a “+” indicates that the compound has an MIC value of 16 micrograms/ml or less)”.

Regarding `N=C(N)NCCCNCc1ccc(-n2cc3cc(-c4cc(CC5CC(CN)C5)cc(C(F)(F)F)c4)[nH]c3nc2=O)cc1` (stereo not shown) [Compound 349], the “E. coli ATCC25922 MIC” value is “+ (a “+” indicates that the compound has an MIC value of 16 micrograms/ml or less)”.

Turning to `C[C@H](N)CCCc1cc(-c2cc3cn(-c4ccc(CNCCCNC(=N)N)cc4)c(=O)nc3[nH]2)cc(C(C)(C)C)c1` [Compound 439], the “E. coli ATCC25922 MIC” value is reported as “+ (a “+” indicates that the compound has an MIC value of 16 micrograms/ml or less)”.

Take `C[C@H](NCCCNC(=N)N)c1ccc(-n2cc3cc(-c4cc(CC5CCC(N)CC5)cc(Cl)c4F)[nH]c3nc2=O)cc1` (stereo partly shown) [Compound 449]: the “E. coli ATCC25922 MIC” value was “+ (a “+” indicates that the compound has an MIC value of 16 micrograms/ml or less)”.

For `Cc1cc(CCC[C@H](C)N)cc(-c2cc3cn(-c4ccc([C@H](C)NCCCNC(=N)N)cc4)c(=O)nc3[nH]2)c1C` [Compound 468], the “E. coli ATCC25922 MIC” value is “+ (a “+” indicates that the compound has an MIC value of 16 micrograms/ml or less)”.

With `CC[C@H](NCCCNC(=N)N)c1ccc(-n2cc3cc(-c4cc(CCC[C@H](C)N)cc(C(F)(F)F)c4)[nH]c3nc2=O)cc1` [Compound 400], the “E. coli ATCC25922 MIC” value is given as “+ (a “+” indicates that the compound has an MIC value of 16 micrograms/ml or less)”.

In the case of `Cc1cc(CCC[C@H](C)N)cc(-c2cc3cn(-c4ccc(CNCCCNC(=N)N)cc4)c(=O)nc3[nH]2)c1C` [Compound 467], the “E. coli ATCC25922 MIC” value is listed as “+ (a “+” indicates that the compound has an MIC value of 16 micrograms/ml or less)”.

On to `N=C(N)NCCCNCc1ccc(-n2cc3cc(-c4cc(CC5CCC(N)CC5)cc(Cl)c4F)[nH]c3nc2=O)cc1` (stereo not shown) [Compound 448], for which the “E. coli ATCC25922 MIC” value is recorded as “+ (a “+” indicates that the compound has an MIC value of 16 micrograms/ml or less)”.
